Values of other authors, collected in patent US20230157281A1, “COMPOSITIONS AND METHODS FOR REPELLING ANIMALS FROM AN OBJECT” (Texas Tech University System, priority 2020, published 2023).
Where two headings read alike, the source gives them in different places.

Assays:
cats [1] = system: cats
cats [2] = settings: preliminary data from another study; dosage not detailed

CC(C)(CCO)SC[C@H](N)C(=O)O [felinine]
use of litter box (cats [1]; substance used in litter, result in words, listed as I-felinine): attract cats to eliminate in the litter box

CC(C)(S)CCO [MMB, 3-Mercapto-3-Methyl Butanol]
use of litter box (cats [1]; added to the litter at 50 μg/kg of litter): did not alter the use of litterbox | use of litter box (cats [1]; substance used in litter, result in words): did not increase the use of litter box | interest shown by male and female cats (cats [2]): showed interests
